For 33 compounds, IC50 results are on record in patent US20120094964A1, “SULFAMOYL BENZOIC ACID DERIVATIVES AS TRPM8 ANTAGONISTS” (priority 2009, published 2012).

SMILES strings stand for the structures. Where only a bound is given, the exact number is not on record here.

The term IC50 denotes the midpoint of a concentration-inhibition curve. Read a low IC50 as greater potency in that assay.

For the assay, the target named is T1, human TRPM8 (Homo sapiens, UniProt Q7Z2W7).
T1 construct: expressed in transfected cells
T1 sequence (Q7Z2W7 whole entry): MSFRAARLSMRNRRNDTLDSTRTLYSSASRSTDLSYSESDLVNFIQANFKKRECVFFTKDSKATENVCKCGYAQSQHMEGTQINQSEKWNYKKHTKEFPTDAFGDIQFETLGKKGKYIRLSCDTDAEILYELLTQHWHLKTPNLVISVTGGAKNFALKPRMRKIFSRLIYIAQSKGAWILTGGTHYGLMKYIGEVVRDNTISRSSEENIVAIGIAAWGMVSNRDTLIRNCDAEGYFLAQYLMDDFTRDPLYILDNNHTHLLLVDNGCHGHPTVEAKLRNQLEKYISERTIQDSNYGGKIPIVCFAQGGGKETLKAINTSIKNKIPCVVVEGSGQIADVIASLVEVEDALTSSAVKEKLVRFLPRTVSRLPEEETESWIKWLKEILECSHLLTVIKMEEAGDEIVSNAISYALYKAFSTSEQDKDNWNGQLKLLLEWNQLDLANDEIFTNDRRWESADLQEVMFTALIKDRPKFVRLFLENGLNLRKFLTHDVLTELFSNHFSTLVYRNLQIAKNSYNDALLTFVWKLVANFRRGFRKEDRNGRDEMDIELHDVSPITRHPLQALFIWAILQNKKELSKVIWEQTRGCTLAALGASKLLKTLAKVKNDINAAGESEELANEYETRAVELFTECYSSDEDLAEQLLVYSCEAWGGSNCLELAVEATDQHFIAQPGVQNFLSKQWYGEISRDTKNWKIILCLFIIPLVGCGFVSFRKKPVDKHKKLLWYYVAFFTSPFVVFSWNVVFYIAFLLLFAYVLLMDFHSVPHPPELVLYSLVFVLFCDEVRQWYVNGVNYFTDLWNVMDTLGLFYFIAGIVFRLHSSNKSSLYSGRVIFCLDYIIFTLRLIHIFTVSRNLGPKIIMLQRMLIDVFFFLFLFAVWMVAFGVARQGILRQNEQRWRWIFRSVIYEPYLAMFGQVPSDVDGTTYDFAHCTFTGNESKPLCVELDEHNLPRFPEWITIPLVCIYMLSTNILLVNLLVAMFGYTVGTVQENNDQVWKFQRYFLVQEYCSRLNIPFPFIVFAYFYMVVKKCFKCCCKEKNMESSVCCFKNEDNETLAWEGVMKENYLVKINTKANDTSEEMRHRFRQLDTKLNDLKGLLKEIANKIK
Description: In Vitro human TRPM8 Functional Assay (intracellular Ca2+, Fluo4, FDSS, menthol activation). The settings on record: HEK293 cells stably expressing human TRPM8; activation with L-(-)-Menthol; 11-point dose-response. It is filed as cell-based. How it is done:
In Vitro human TRPM8 Functional Assay
The functional activity of compounds was determined by measuring changes in intracellular calcium concentration using a Ca^2+-sensitive fluorescent dye, Fluo4 (Molecular Probes). The changes in fluorescent signal were monitored by the cell imaging technology by Hamamatsu Photonics's Functional Drug Screening System (FDSS).
HEK293 cells stably expressing human TRPM8 were grown in T175 flasks, in a 5% CO2 humidified incubator to about 80% confluence. Media composition consisted of Dulbecco's Modified Eagle Medium (high glucose), 10% fetal calf serum (FCS), 100 units/ml Penicillin, 100 microg/ml Streptomycin and 600 microg/ml Geneticine.
1. Plate-out HEK293-TRPM8 cells (40 microL medium containing 30,000 cells per well) into poly-D-lysine coated 384-well plates (BD FALCON) at 24 hours prior to assay.
1. […] 2. […] 3. Place the plate at room temperature in dark for 1 hour. 4. […] 5. Add 20 microL of compound solutions into each well and leave the plate for 5 minutes under the dark at room temperature. 6. Measure activity by FDSS as follows: • Set the assay plate on the stacker of FDSS • Start the detection of fluorescence intensity • After 30 sec, add 20 microL of 90 microM L-(−)-Menthol
IC50 values for compounds of the present invention were determined from 11-point dose-response studies. Curves were generated using the average of duplicate wells for each data point. Finally, the IC50 values are calculated with the best-fit dose curve determined by XLfit (ID Business Solutions Ltd.).
`O=C(O)c1ccc(S(=O)(=O)N(Cc2ccc(F)c(Cl)c2)c2ncc(C(F)(F)F)cc2Cl)cc1` [Example 71, 4-(N-(3-Chloro-4-fluorobenzyl)-N-(3-chloro-5-(trifluoromethyl)pyridin-2-yl)sulfamoyl)benzoic acid] returned an IC50 of less than 1000 nM.

On to `O=S(=O)(c1ccc(-c2nn[nH]n2)cc1)N(Cc1ccccc1)c1ncc(C(F)(F)F)cc1Cl` [Example 174, N-Benzyl-N-(3-chloro-5-(trifluoromethyl)pyridin-2-yl)-4-(2H-tetrazol-5-yl)benzenesulfonamide], for which the IC50 was less than 1000 nM.

As for `O=C(O)c1ccc(S(=O)(=O)N(CCC2CCCCC2)c2ncc(C(F)(F)F)cc2Cl)cc1` [Example 19, 4-(N-(3-Chloro-5-(trifluoromethyl)pyridin-2-yl)-N-(2-cyclohexylethyl)sulfamoyl)benzoic acid], the concentration for half-maximal inhibition (IC50) is less than 1000 nM.

For the compound `O=C(O)c1ccc(S(=O)(=O)N(Cc2ccc(Cl)cc2C(F)(F)F)c2ncc(Cl)cc2Cl)cc1` [Example 72, 4-(N-(4-Chloro-2-(trifluoromethyl)benzyl)-N-(3,5-dichloropyridin-2-yl)sulfamoyl)benzoic acid], the IC50 was less than 1000 nM.

The compound `COc1cccc(N(C(C)c2ccccc2F)S(=O)(=O)c2ccccc2F)c1` (stereo not drawn) [Example 92, 2-Fluoro-N-(1-(2-fluorophenyl)ethyl)-N-(3-methoxyphenyl)benzene-sulfonamide] came in with an IC50 of 1000 to 10000 nM.

`O=C(O)c1ccc(S(=O)(=O)N(Cc2cccc(Cl)c2)c2ncc(C(F)(F)F)cc2Cl)cc1` [Example 48, 4-(N-(3-Chloro-5-(trifluoromethyl)pyridin-2-yl)-N-(3-chlorobenzyl)sulfamoyl)benzoic acid] showed an IC50 of less than 1000 nM.

Take `O=C(O)c1ccc(S(=O)(=O)N(Cc2ccc(NC(=O)c3ccccn3)cc2)c2ncc(C(F)(F)F)cc2Cl)cc1` [Example 161, 4-(N-(3-Chloro-5-(trifluoromethyl)pyridin-2-yl)-N-(4-(picolinamido)benzyl)sulfamoyl)benzoic acid]: the concentration for half-maximal inhibition (IC50) was less than 1000 nM.

In the case of `O=S(=O)(c1ccc(CO)cc1)N(Cc1ccccc1)c1ncc(C(F)(F)F)cc1Cl` [Example 9, N-Benzyl-N-(3-chloro-5-(trifluoromethyl)pyridin-2-yl)-4-(hydroxymethyl)benzene-1-sulfonamide], the concentration for half-maximal inhibition (IC50) is less than 1000 nM.

`N#Cc1ccc(S(=O)(=O)N(Cc2ccccc2)c2ncc(C(F)(F)F)cc2Cl)cc1` [Example 173, N-Benzyl-N-(3-chloro-5-(trifluoromethyl)pyridin-2-yl)-4-cyanobenzenesulfonamide] had an IC50 of less than 1000 nM.

The compound `COc1ccccc1N(Cc1ccccc1)S(=O)(=O)c1cc(C(=O)O)ccc1Cl` [Example 118, 3-(N-Benzyl-N-(2-methoxyphenyl)sulfamoyl)-4-chlorobenzoic acid] came in with a half-maximal inhibitory concentration (IC50) of 1000 to 10000 nM.

`O=C(O)c1cc(S(=O)(=O)N(Cc2ccccc2)c2ccccc2Cl)ccc1Cl` [Example 121, 5-(N-Benzyl-N-(2-chlorophenyl)sulfamoyl)-2-chlorobenzoic acid] had a half-inhibitory concentration (IC50) of 1000 to 10000 nM.

As to `O=C(O)c1ccc(S(=O)(=O)N(Cc2ccccn2)c2ccc(C(F)(F)F)cc2Cl)cc1` [Example 82, 4-(N-(2-Chloro-4-(trifluoromethyl)phenyl)-N-(pyridin-2-ylmethyl)sulfamoyl)benzoic acid], the half-inhibitory concentration (IC50) fell in the range of 1000 to 10000 nM.

Take `O=S(=O)(c1ccccc1)N(Cc1ccccc1)c1ccccn1` [Example 131, N-Benzyl-N-(pyridin-2-yl)benzenesulfonamide]: the IC50 was 1000 to 10000 nM.

`O=C(CN(c1cccc(C(F)(F)F)c1)S(=O)(=O)c1ccccc1)Nc1ccccc1` [Example 8, N-Phenyl-2-(N-(3-(trifluoromethyl)phenyl)benzenesulfonamido)acetamide]: the half-maximal inhibitory concentration (IC50) was 1000 to 10000 nM.

Regarding `COc1ccc(CN(c2ncc(C(F)(F)F)cc2Cl)S(=O)(=O)c2ccc(C(=O)O)cc2)cc1` [Example 16, 4-(N-(3-Chloro-5-(trifluoromethyl)pyridin-2-yl)-N-(4-methoxybenzyl)sulfamoyl)benzoic acid], the half-maximal inhibitory concentration (IC50) is less than 1000 nM.

As to `COc1cc(C(=O)O)ccc1S(=O)(=O)N(Cc1ccccc1)c1ncc(C(F)(F)F)cc1Cl` [Example 146, 4-(N-Benzyl-N-(3-chloro-5-(trifluoromethyl)pyridin-2-yl)sulfamoyl)-3-methoxybenzoic acid], the concentration for half-maximal inhibition (IC50) is less than 1000 nM.

As for `COc1cccc(CN(c2ncc(C(F)(F)F)cc2Cl)S(=O)(=O)c2ccc(C(=O)O)cc2)c1` [Example 24, 4-(N-(3-Chloro-5-(trifluoromethyl)pyridin-2-yl)-N-(3-methoxybenzyl)sulfamoyl)benzoic acid], the IC50 is less than 1000 nM.

The compound `O=C(O)c1ccc(S(=O)(=O)N(CC2CCCC2)c2ncc(C(F)(F)F)cc2Cl)cc1` [Example 192, 4-(N-(3-Chloro-5-(trifluoromethyl)pyridin-2-yl)-N-(cyclopentylmethyl)sulfamoyl)benzoic acid] registered a half-inhibitory concentration (IC50) of less than 1000 nM.

`Cc1cc(S(=O)(=O)N(Cc2ccccc2)c2ncc(C(F)(F)F)cc2Cl)ccc1C(=O)O` [Example 143, 4-(N-Benzyl-N-(3-chloro-5-(trifluoromethyl)pyridin-2-yl)sulfamoyl)-2-methylbenzoic acid] registered a concentration for half-maximal inhibition (IC50) of less than 1000 nM.

`O=C(O)c1ccc(S(=O)(=O)N(Cc2ccc(C(F)(F)F)cc2)c2ncc(Cl)cc2Cl)cc1` [Example 54, 4-(N-(3,5-Dichloropyridin-2-yl)-N-(4-(trifluoromethyl)benzyl)sulfamoyl)benzoic acid] came in with an IC50 of less than 1000 nM.

For the compound `O=C(O)c1ccc(S(=O)(=O)N(Cc2ccc(F)c(F)c2)c2ncc(C(F)(F)F)cc2Cl)cc1` [Example 45, 4-(N-(3-Chloro-5-(trifluoromethyl)pyridin-2-yl)-N-(3,4-difluorobenzyl)sulfamoyl)benzoic acid], the IC50 is less than 1000 nM.

As for `O=C(O)c1ccc(S(=O)(=O)N(CC2CC2)c2ncc(C(F)(F)F)cc2Cl)cc1` [Example 29, 4-(N-(3-Chloro-5-(trifluoromethyl)pyridin-2-yl)-N-(cyclopropylmethyl)sulfamoyl)benzoic acid], the IC50 lay in the range of 1000 to 10000 nM.

For `O=C(O)c1ccc(S(=O)(=O)N(Cc2ccc(Oc3ccccc3)cc2)c2ncc(C(F)(F)F)cc2Cl)cc1` [Example 169, 4-(N-(3-Chloro-5-(trifluoromethyl)pyridin-2-yl)-N-(4-phenoxybenzyl)sulfamoyl)benzoic acid], the 50% inhibitory concentration (IC50) is less than 1000 nM.

Consider `O=C(O)c1ccc(S(=O)(=O)N(Cc2ccc(F)cc2)c2ncc(Cl)cc2Cl)cc1` [Example 61, 4-(N-(3,5-Dichloropyridin-2-yl)-N-(4-fluorobenzyl)sulfamoyl)benzoic acid], for which the IC50 was less than 1000 nM.

`Cc1cc(Cl)cnc1N(Cc1ccc(C(F)(F)F)cc1)S(=O)(=O)c1ccc(C(=O)O)cc1` [Example 55, 4-(N-(5-Chloro-3-methylpyridin-2-yl)-N-(4-(trifluoromethyl)benzyl)sulfamoyl)benzoic acid] gave a concentration for half-maximal inhibition (IC50) of less than 1000 nM.

The compound `O=C(O)c1ccc(S(=O)(=O)N(Cc2ccccc2)c2cc(C(F)(F)F)ccn2)cc1` [Example 21, 4-(N-Benzyl-N-(4-(trifluoromethyl)pyridin-2-yl)sulfamoyl)benzoic acid] showed an IC50 of 1000 to 10000 nM.

Compound `CS(=O)(=O)NCc1ccc(S(=O)(=O)N(Cc2ccccc2)c2ncc(C(F)(F)F)cc2Cl)cc1` [Example 176, N-Benzyl-N-(3-chloro-5-(trifluoromethyl)pyridin-2-yl)-4-(methylsulfonamidomethyl)benzenesulfonamide] displayed an IC50 of less than 1000 nM.

For `Cc1ccc(S(=O)(=O)N(Cc2ccccc2)c2ccccn2)cc1[N+](=O)[O-]` [Example 133, N-Benzyl-4-methyl-3-nitro-N-(pyridin-2-yl) benzenesulfonamide], the IC50 was in the range of 1000 to 10000 nM.

`Cn1cc(-c2ccc(CN(c3ncc(C(F)(F)F)cc3Cl)S(=O)(=O)c3ccc(C(=O)O)cc3)cc2)cn1` [Example 152, 4-(N-(3-Chloro-5-(trifluoromethyl)pyridin-2-yl)-N-(4-(1-methyl-1H-pyrazol-4-yl)benzyl)sulfamoyl)benzoic acid] had a 50% inhibitory concentration (IC50) of less than 1000 nM.

The compound `O=C(O)c1ccc(S(=O)(=O)N(CC2CCC2)c2ncc(C(F)(F)F)cc2Cl)cc1` [Example 171, 4-(N-(3-Chloro-5-(trifluoromethyl)pyridin-2-yl)-N-(cyclobutylmethyl)sulfamoyl)benzoic acid] gave an IC50 of less than 1000 nM.

Take `COc1ccc(-c2ccc(CN(c3ncc(C(F)(F)F)cc3Cl)S(=O)(=O)c3ccc(C(=O)O)cc3)cc2)cn1` [Example 162, 4-(N-(3-chloro-5-(trifluoromethyl)pyridin-2-yl)-N-(4-(6-methoxypyridin-3-yl)-benzyl)sulfamoyl)benzoic acid]: the concentration for half-maximal inhibition (IC50) was less than 1000 nM.

Compound `O=C(O)c1ccc(S(=O)(=O)N(Cc2ccccc2)c2ccc(C(F)(F)F)cc2Cl)cc1` [Example 56, 4-(N-Benzyl-N-(2-chloro-4-(trifluoromethyl)phenyl)sulfamoyl)benzoic acid] displayed a half-maximal inhibitory concentration (IC50) of less than 1000 nM.

With `COc1ccc(-c2cnc(N(Cc3ccccc3)S(=O)(=O)c3ccc(C(=O)O)cc3)c(Cl)c2)cc1` [Example 186, 4-(N-Benzyl-N-(3-chloro-5-(4-methoxyphenyl)pyridin-2-yl)sulfamoyl)benzoic acid], the 50% inhibitory concentration (IC50) was less than 1000 nM.
